According to ChEMBL document CHEMBL1145992, “N6-substituted D-4'-thioadenosine-5'-methyluronamides: potent and selective agonists at the human A3 adenosine receptor” (J Med Chem, 2003):
pIC50, pKi: −log10 of the molar value.

Key:
Adenosine receptor A2a [1] = biological target: Adenosine receptor A2a (Homo sapiens, UniProt P29274); assay: Binding affinity for human adenosine A2A receptor in CHO cells using [3H]CGS-21680; type: cell-based
Adenosine receptor A2a [2] = biological target: Adenosine receptor A2a (Rattus norvegicus, UniProt P30543); assay: Binding affinity for rat adenosine A2A receptor in rat brain homogenates using [3H]CGS-21680
Sequence of Adenosine receptor A2a (Rattus norvegicus, UniProt P30543) (P30543 whole entry): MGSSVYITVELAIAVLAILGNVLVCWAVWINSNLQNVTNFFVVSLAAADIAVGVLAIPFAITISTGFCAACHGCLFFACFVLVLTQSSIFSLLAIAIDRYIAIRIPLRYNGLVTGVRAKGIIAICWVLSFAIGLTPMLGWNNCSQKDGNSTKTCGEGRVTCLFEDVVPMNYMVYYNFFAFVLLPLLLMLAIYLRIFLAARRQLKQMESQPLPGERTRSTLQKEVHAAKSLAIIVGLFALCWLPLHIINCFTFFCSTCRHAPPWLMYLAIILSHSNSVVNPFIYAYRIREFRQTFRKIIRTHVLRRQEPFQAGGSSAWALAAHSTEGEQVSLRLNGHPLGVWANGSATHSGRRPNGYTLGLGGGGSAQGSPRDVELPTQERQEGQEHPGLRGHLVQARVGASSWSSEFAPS

Adenosine receptor A1 = biological target: T1, Adenosine receptor A1 (Rattus norvegicus, UniProt P25099); assay: Binding affinity for rat Adenosine A1 receptor in rat brain homogenates using [3H]N6-(R)-phenylisopropyladenosine
T1 sequence (P25099 whole entry): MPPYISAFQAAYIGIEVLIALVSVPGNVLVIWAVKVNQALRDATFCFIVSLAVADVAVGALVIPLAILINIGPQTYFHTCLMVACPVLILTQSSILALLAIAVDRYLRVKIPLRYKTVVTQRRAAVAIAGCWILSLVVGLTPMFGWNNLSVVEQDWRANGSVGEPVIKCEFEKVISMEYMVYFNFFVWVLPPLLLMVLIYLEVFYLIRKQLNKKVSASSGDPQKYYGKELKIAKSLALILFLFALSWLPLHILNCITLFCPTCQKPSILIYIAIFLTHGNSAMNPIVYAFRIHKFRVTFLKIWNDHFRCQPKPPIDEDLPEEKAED

Adenosine receptor A3 = biological target: T2, Adenosine receptor A3 (Homo sapiens, UniProt P0DMS8); assay: Inhibitory concentration against human Adenosine A3 receptor mediated inhibition of cyclic AMP in transfected CHO cells; type: functional, cell-based
T2 sequence (P0DMS8 whole entry): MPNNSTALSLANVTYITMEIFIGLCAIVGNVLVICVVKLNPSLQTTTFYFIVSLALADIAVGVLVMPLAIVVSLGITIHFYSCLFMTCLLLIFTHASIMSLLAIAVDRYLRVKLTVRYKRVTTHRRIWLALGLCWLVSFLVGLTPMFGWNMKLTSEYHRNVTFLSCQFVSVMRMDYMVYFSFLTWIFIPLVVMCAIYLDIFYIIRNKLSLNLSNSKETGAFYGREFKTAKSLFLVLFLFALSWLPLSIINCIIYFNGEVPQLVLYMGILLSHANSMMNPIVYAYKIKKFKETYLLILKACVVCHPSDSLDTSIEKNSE

[3] = biological target: Adenosine receptor A2a (Rattus norvegicus) (UniProt P30543); assay: Percent displacement of [3H]-CGS-21,680 from rat adenosine A2A receptor in rat brain homogenates at 1 uM
Sequence of Adenosine receptor A2a (Rattus norvegicus) (P30543 whole entry): as the sequence (P30543 whole entry) above

Sequence of Adenosine receptor A2a (Homo sapiens, UniProt P29274) (P29274 whole entry): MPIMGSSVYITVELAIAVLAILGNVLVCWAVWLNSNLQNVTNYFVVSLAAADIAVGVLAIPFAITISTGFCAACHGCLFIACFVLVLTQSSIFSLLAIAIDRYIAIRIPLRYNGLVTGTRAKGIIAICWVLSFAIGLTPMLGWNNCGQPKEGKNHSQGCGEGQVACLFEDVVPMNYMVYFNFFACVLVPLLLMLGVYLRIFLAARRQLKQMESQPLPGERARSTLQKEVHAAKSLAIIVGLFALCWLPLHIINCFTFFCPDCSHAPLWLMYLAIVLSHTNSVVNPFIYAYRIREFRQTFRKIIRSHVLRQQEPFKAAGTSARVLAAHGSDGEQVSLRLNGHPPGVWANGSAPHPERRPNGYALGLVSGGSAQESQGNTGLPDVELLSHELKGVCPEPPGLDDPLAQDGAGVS

| pIC50 (Adenosine receptor A3) | Displacement [3] | SMILES | pKi (Adenosine receptor A2a [1]) | pKi (Adenosine receptor A2a [2]) | pKi (Adenosine receptor A1) |
| --- | --- | --- | --- | --- | --- |
| – | – | CNC(=O)[C@H]1S[C@@H](n2cnc3c(NCc4cccc(I)c4)nc(Cl)nc32)[C@H](O)[C@@H]1O | 6.65 | 6.46 | 6.85 |
| 9.00 | < 10% | CNC(=O)[C@H]1S[C@@H](n2cnc3c(N)nc(Cl)nc32)[C@H](O)[C@@H]1O | – | – | – |
